Assay type in all cases: binding
One assay addresses T1, human SSTR1 (Homo sapiens, UniProt P30872).
T1 construct: expressed in transfected cells; host or cells: CHO-K1 cells and CCL39 cells
In words: Displacement of 125I-[Leu8,D-Trp22,Tyr25]-SRIF-28 from cloned SSTR1 (receptor autoradiography). As to the method: (§1) Generally, recombinant cells expressing the receptor are washed and homogenized to prepare a crude protein homogenate that is frozen, embedded and then cut in 10–20 μm thin sections, as known in this art. Candidate substances, such as potential SRIF agonists and antagonists, are incubated with the tissue sections, and the interaction between the candidate substance and the receptor polypeptide is monitored.
(§2) Receptor binding assays are performed on cloned SRIF receptors as generally set forth in Reubi, J. C. et al., J. Clin. Endocrinol. […] Med. 2000, 27, 273–282.
(§3) In vitro Bioassay: The various somatostatin analogs are tested in vitro for their ability to bind to isolated cloned receptors expressed on CHO-K1 cells and CCL39 cells. CHO-K1 cells are grown in Ham's F-12 medium, and CCL39 cells are grown in Dulbecco's modified Eagle's medium/Ham's F-12(1:1) mix, supplemented with 10% fetal bovine serum, 100 U/ml penicillin and 100 μg/ml streptomycin, in humidified air containing 5% CO2 at 37° C.
(§4) Cells are washed and prepared to produce homogenates as described in detail in Reubi, J. C. et al, Eur. J. Nucl. Med. 2000, 27, 273–282.
(§5) Receptor autoradiography is performed on 20 μm thick cryostat sections of the membrane pellets, mounted on microscope slides, and then stored at −20° C. […] Increasing concentrations of the unlabeled peptide are used ranging from 0.1–1000 nM. […] IC50 values are calculated after quantification of the data using a computer-assisted image processing system as known in this art.
A general note: Displacement assays read how much labelled ligand stays bound in the presence of the test substance.

The target in a further assay is T2, human SSTR2 (Homo sapiens, UniProt P30874).
T2 construct: expressed in transfected cells; host or cells: CHO-K1 cells and CCL39 cells
T2 sequence (P30874 whole entry): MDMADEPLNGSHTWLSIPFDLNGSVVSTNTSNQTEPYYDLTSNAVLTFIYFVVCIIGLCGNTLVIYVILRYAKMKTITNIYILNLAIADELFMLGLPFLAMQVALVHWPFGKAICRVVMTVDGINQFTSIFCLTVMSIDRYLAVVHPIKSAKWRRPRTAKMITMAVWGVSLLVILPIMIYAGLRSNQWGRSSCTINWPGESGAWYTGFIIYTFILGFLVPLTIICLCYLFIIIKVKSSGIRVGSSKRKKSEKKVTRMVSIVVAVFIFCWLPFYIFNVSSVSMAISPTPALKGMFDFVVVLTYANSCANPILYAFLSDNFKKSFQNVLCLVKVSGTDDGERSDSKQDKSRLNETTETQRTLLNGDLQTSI
In words: Displacement of 125I-[Leu8,D-Trp22,Tyr25]-SRIF-28 from cloned SSTR2 (receptor autoradiography). The conditions noted are these: read-out: IC50 (nM) mSSTR2. As to the method: as §1, §2, §3, §4
(§6) Receptor autoradiography is performed on 20 μm thick cryostat sections of the membrane pellets, mounted on microscope slides, and then stored at −20° C. […] […] […] IC50 values are calculated after quantification of the data using a computer-assisted image processing system as known in this art.

A further assay has as its target T3, human SSTR3 (Homo sapiens, UniProt P32745).
T3 construct: expressed in transfected cells; host or cells: CHO-K1 cells and CCL39 cells
In words: Displacement of 125I-[Leu8,D-Trp22,Tyr25]-SRIF-28 from cloned SSTR3 (receptor autoradiography). Particulars: read-out: IC50 (nM) mSSTR3. Here is the method:
as §1, §2, §3, §4, §5

In another assay the target is T4, human SSTR4 (Homo sapiens, UniProt P31391).
T4 construct: expressed in transfected cells; host or cells: CHO-K1 cells and CCL39 cells
T4 sequence (P31391 whole entry): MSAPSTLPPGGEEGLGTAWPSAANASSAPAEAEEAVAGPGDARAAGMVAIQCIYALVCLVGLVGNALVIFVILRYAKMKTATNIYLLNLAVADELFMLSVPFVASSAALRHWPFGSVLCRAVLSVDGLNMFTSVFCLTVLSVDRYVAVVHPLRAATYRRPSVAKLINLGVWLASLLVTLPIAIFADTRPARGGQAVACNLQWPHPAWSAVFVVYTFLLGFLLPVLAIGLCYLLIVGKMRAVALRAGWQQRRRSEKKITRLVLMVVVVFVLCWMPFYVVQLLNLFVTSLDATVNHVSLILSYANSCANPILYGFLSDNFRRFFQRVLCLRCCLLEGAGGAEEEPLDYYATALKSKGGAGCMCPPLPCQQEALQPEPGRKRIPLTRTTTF
In words: Displacement of 125I-[Leu8,D-Trp22,Tyr25]-SRIF-28 from cloned SSTR4 (receptor autoradiography). Particulars: read-out: IC50 (nM) mSSTR4. Here is the method: as §1, §2, §3, §4, §5

For another assay, the target named is T5, human SSTR5 (Homo sapiens, UniProt P35346).
T5 construct: expressed in transfected cells; host or cells: CHO-K1 cells and CCL39 cells
T5 sequence (P35346 whole entry): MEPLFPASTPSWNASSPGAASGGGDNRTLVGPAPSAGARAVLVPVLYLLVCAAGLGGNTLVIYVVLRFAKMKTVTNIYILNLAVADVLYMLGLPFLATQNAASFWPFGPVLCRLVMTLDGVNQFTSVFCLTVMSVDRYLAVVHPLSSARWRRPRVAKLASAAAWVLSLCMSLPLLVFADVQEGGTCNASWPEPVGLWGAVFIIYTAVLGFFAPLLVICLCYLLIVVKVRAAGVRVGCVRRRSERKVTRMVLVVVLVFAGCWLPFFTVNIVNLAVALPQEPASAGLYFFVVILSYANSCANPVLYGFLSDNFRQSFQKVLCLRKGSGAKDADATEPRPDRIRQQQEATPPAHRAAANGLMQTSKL
In words: Displacement of 125I-[Leu8,D-Trp22,Tyr25]-SRIF-28 from cloned SSTR5 (receptor autoradiography). Particulars: read-out: IC50 (nM) mSSTR5. As to the method:
as §1, §2, §3, §4, §6

Where [1] appears, read: inhibition of radioligand binding of 125I-[Leu8,D-Trp22,Tyr24]SRIF-28, cloned receptor, table, read-out: IC50 (nM) mSSTR1.
Setting [2] is: unit inferred, read-out: IC50 / binding affinity at SSTR1, unit inferred.
Where [3] appears, read: inhibition of radioligand binding of 125I-[Leu8,D-Trp22,Tyr24]SRIF-28, cloned receptor, table.

Like-named read-outs stand apart in the source and are kept apart here. *1 amine or outer side, *2 acyl side, *3 side chain or, on linkers, in order; H or OH if unused. Where a SMILES comes first, the peptide text is derived from it. Bridges are numbered along the chain shown (N, C = ends). [ ]: non-standard residue; d: D form. The star is where a group is joined. NMePhe(4-CH2NHiPr) = CN[C@@H](Cc1ccc(CNC(C)C)cc1)C(=O)O; Tyr(Nα-carbamoyl) = NC(=O)N[C@@H](Cc1ccc(O)cc1)C(=O)*; Phe(4-CH2NHiPr) = CC(C)NCc1ccc(C[C@H](N)C(=O)O)cc1; Tyr(3-I) = N[C@@H](Cc1ccc(O)c(I)c1)C(=O)O; X3 = NC(=O)N[C@@H](Cc1ccc(O)c(I)c1)C(=O)*; X1 = NC(=O)N[C@@H](CS[*:2])C(=O)[*:1]; d2Nal = N[C@H](Cc1ccc2ccccc2c1)C(=O)O; X2 = NC(=O)N[C@H](CS[*:2])C(=O)[*:1]; NMeS = CN[C@@H](CO)C(=O)O

T1 sequence (P30872 whole entry): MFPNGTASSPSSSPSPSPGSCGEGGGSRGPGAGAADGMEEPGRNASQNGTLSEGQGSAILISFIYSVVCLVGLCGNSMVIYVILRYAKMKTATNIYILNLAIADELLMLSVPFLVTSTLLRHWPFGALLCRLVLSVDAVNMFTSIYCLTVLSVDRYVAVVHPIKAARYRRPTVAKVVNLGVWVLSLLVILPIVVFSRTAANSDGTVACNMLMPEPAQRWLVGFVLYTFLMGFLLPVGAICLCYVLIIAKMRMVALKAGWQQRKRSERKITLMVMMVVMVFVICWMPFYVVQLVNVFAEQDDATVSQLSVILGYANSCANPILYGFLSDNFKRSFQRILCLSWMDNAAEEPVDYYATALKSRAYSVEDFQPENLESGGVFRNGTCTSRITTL
T3 sequence (P32745 whole entry): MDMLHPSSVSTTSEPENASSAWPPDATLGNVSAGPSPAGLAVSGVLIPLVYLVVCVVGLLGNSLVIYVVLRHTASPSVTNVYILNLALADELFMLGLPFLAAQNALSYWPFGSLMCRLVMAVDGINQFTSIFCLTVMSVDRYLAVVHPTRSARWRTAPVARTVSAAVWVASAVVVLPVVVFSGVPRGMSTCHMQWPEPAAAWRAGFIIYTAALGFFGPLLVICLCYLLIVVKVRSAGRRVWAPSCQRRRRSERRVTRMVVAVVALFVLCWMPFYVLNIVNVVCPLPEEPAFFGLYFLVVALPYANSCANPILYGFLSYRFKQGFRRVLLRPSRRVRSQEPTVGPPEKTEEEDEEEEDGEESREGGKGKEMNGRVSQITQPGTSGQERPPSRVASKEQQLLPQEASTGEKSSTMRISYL

Take `CC(C)NCc1ccc(C[C@@H]2NC(=O)[C@@H](Cc3c[nH]c4ccccc34)NC(=O)[C@H](Cc3ccccc3)NC(=O)[C@H](Cc3ccccc3)NC(=O)[C@H](CCCCN)NC(=O)[C@H](NC(N)=O)CSSC[C@@H](C(=O)O)NC(=O)[C@H](CO)NC(=O)[C@H]([C@@H](C)O)NC(=O)[C@H](Cc3ccc(O)cc3)NC(=O)[C@H]([C@@H](C)O)NC2=O)cc1` [Peptide No. 12C, (cyclo)CbmD-Cys-Lys-Phe-Phe-D-Trp-IAmp-Thr-Tyr-Thr-Ser-Cys-OH] (KFF[dW][Phe(4-CH2NHiPr)]TYTSC-OH; linker N-10 via X2): the IC50 on human SSTR1 (setting [1]) is 17.4 nM; on human SSTR2, > 10000 nM; at human SSTR3, > 1000 nM; at human SSTR4, > 10000 nM; at human SSTR5 it was > 1000 nM.

As for `CC(C)NCc1ccc(C[C@H]2C(=O)N[C@@H]([C@@H](C)O)C(=O)N[C@@H](Cc3ccc(O)c(I)c3)C(=O)N[C@@H]([C@@H](C)O)C(=O)N[C@@H](CO)C(=O)N[C@H](C(=O)O)CSSC[C@H](NC(N)=O)C(=O)N[C@@H](CCCCN)C(=O)N[C@@H](Cc3ccccc3)C(=O)N[C@@H](Cc3ccccc3)C(=O)N[C@H](Cc3c[nH]c4ccccc34)C(=O)N2C)cc1` [Peptide No. 12D, (cyclo)CbmCys-Lys-Phe-Phe-D-Trp-N^αMeIAmp-Thr-ITyr-Thr-Ser-Cys-OH] (KFF[dW][NMePhe(4-CH2NHiPr)]T[Tyr(3-I)]TSC-OH; linker N-10 via X1), the IC50 is 8.5 nM at human SSTR1 (setting [1]); > 1000 nM on human SSTR2; > 1000 nM at human SSTR3; 700 nM on human SSTR4; > 1000 nM on human SSTR5.

Regarding `CC(C)NCc1ccc(C[C@H]2C(=O)N[C@@H]([C@@H](C)O)C(=O)N[C@@H](Cc3ccccc3)C(=O)N[C@@H]([C@@H](C)O)C(=O)N[C@@H](CO)C(=O)N[C@H](C(=O)O)CSSC[C@H](N)C(=O)N[C@@H](CCCCN)C(=O)N[C@@H](Cc3ccccc3)C(=O)N[C@@H](Cc3ccccc3)C(=O)N[C@H](Cc3c[nH]c4ccccc34)C(=O)N2C)cc1` [Peptide No. 13, (cyclo)H-Cys-Lys-Phe-Phe-D-Trp-N^αMeIAmp-Thr-Phe-Thr-Ser-Cys-OH] (H-CKFF[dW][NMePhe(4-CH2NHiPr)]TFTSC-OH; disulfide 1-11), the IC50 is ~8.7 nM at human SSTR1 (displacement of iodinated SRIF-28 radioligand, read-out: IC50 / binding affinity at human SSTR1); 8.7 nM at human SSTR1 (setting [1]); > 10000 nM on human SSTR2; 610 nM on human SSTR3; 200 nM at human SSTR4; > 10000 nM at human SSTR5.

On to `CC(C)NCc1ccc(C[C@@H]2NC(=O)[C@@H](Cc3c[nH]c4ccccc34)NC(=O)[C@H](Cc3ccccc3)NC(=O)[C@H](Cc3ccccc3)NC(=O)[C@H](CCCCN)NC(=O)[C@@H](NC(=O)[C@H](Cc3ccc(O)cc3)NC(N)=O)CSSC[C@@H](C(=O)O)NC(=O)[C@H](CO)NC(=O)[C@H]([C@@H](C)O)NC(=O)[C@H](Cc3ccccc3)NC(=O)[C@H]([C@@H](C)O)NC2=O)cc1` [Peptide No. 14A, (cyclo)CbmTyr-Cys-Lys-Phe-Phe-D-Trp-IAmp-Thr-Phe-Thr-Ser-Cys-OH] ({Tyr(Nα-carbamoyl)}-CKFF[dW][Phe(4-CH2NHiPr)]TFTSC-OH; disulfide 1-11), for which the IC50 at human SSTR1 (setting [2]) is 15 nM; at human SSTR2 it was > 10000 nM; on human SSTR3, 500 nM; at human SSTR4 (setting [3]), > 1000 nM; on human SSTR5, > 1000 nM.

With `CC(C)NCc1ccc(C[C@@H]2NC(=O)[C@@H](Cc3c[nH]c4ccccc34)NC(=O)[C@H](Cc3ccccc3)NC(=O)[C@H](Cc3ccccc3)NC(=O)[C@H](CCCCN)NC(=O)[C@@H](NC(=O)[C@H](Cc3ccc(O)c(I)c3)NC(N)=O)CSSC[C@@H](C(=O)O)NC(=O)[C@H](CO)NC(=O)[C@H]([C@@H](C)O)NC(=O)[C@H](Cc3ccccc3)NC(=O)[C@H]([C@@H](C)O)NC2=O)cc1` [Peptide No. 14B] (X3-CKFF[dW][Phe(4-CH2NHiPr)]TFTSC-OH; disulfide 1-11), the IC50 at human SSTR1 (setting [1]) was 34.7 nM; at human SSTR2, > 1000 nM; at human SSTR3, 290 nM; on human SSTR4, > 1000 nM; at human SSTR5, > 1000 nM.

Consider `CC(C)NCc1ccc(C[C@@H]2NC(=O)[C@@H](Cc3c[nH]c4ccccc34)NC(=O)[C@H](Cc3ccccc3)NC(=O)[C@H](Cc3ccccc3)NC(=O)[C@H](CCCCN)NC(=O)[C@H](NC(=O)[C@H](Cc3ccc(O)cc3)NC(N)=O)CSSC[C@@H](C(=O)O)NC(=O)[C@H](CO)NC(=O)[C@H]([C@@H](C)O)NC(=O)[C@H](Cc3ccccc3)NC(=O)[C@H]([C@@H](C)O)NC2=O)cc1` [Peptide No. 14C, (cyclo)CbmTyr-D-Cys-Lys-Phe-Phe-D-Trp-IAmp-Thr-Phe-Thr-Ser-Cys-OH] ({Tyr(Nα-carbamoyl)}-[dC]KFF[dW][Phe(4-CH2NHiPr)]TFTSC-OH; disulfide 1-11), for which the IC50 at human SSTR1 (setting [1]) is 33 nM; at human SSTR2, > 10000 nM; at human SSTR3, > 1000 nM; on human SSTR4 (setting [3]), 487 nM; at human SSTR5 it was > 1000 nM.

Regarding `CC(C)NCc1ccc(C[C@H]2C(=O)N[C@@H]([C@@H](C)O)C(=O)N[C@@H](Cc3ccccc3)C(=O)N[C@@H]([C@@H](C)O)C(=O)N[C@@H](CO)C(=O)N[C@H](C(=O)O)CSSC[C@H](N)C(=O)N[C@@H](CCCCN)C(=O)N[C@@H](Cc3ccccc3)C(=O)N[C@@H](Cc3ccccc3)C(=O)N[C@H](Cc3ccc4ccccc4c3)C(=O)N2C)cc1` [Peptide No. 15, (cyclo)H-Cys-Lys-Phe-Phe-D-2Nal-N^αMeIAmp-Thr-Phe-Thr-Ser-Cys-OH] (H-CKFF[d2Nal][NMePhe(4-CH2NHiPr)]TFTSC-OH; disulfide 1-11), the IC50 on human SSTR1 (setting [1]) was 43 nM; at human SSTR1 (setting [2]), ~32.5 nM; at human SSTR2, > 1000 nM; on human SSTR3 it was > 1000 nM; at human SSTR4, > 1000 nM; on human SSTR5, > 10000 nM.

In the case of `CC(C)NCc1ccc(C[C@H]2C(=O)N[C@@H]([C@@H](C)O)C(=O)N[C@@H](Cc3ccc(O)cc3)C(=O)N[C@@H]([C@@H](C)O)C(=O)N[C@@H](CO)C(=O)N[C@H](C(=O)O)CSSC[C@H](NC(N)=O)C(=O)N[C@@H](CCCCN)C(=O)N[C@@H](Cc3ccccc3)C(=O)N[C@@H](Cc3ccccc3)C(=O)N[C@H](Cc3ccc4ccccc4c3)C(=O)N2C)cc1` [Peptide No. 16, (cyclo)CbmCys-Lys-Phe-Phe-D-2Nal-N^αMeIAmp-Thr-Tyr-Thr-Ser-Cys-OH] (KFF[d2Nal][NMePhe(4-CH2NHiPr)]TYTSC-OH; linker N-10 via X1), the IC50 at human SSTR1 (setting [1]) was 32 nM; on human SSTR1 (setting [2]), ~32 nM; on human SSTR2 it was > 10000 nM; at human SSTR3, > 1000 nM; on human SSTR4 it was > 10000 nM; on human SSTR5 it was > 10000 nM.

Consider `CC(C)NCc1ccc(C[C@@H]2NC(=O)[C@@H](Cc3c[nH]c4ccccc34)NC(=O)[C@H](Cc3ccccc3)NC(=O)[C@H](Cc3ccccc3)NC(=O)[C@H](CCCCN)NC(=O)[C@@H](N)CSSC[C@@H](C(=O)O)NC(=O)[C@H](CO)N(C)C(=O)[C@H]([C@@H](C)O)NC(=O)[C@H](Cc3ccccc3)NC(=O)[C@H]([C@@H](C)O)NC2=O)cc1` [Peptide No. 22A, (cyclo)H-Cys-Lys-Phe-Phe-D-Trp-IAmp-Thr-Phe-Thr-N^αMeSer-Cys-OH] (H-CKFF[dW][Phe(4-CH2NHiPr)]TFT[NMeS]C-OH; disulfide 1-11), for which the IC50 was 25 nM on human SSTR1 (setting [1]); > 10000 nM on human SSTR2; 600 nM on human SSTR3; > 1000 nM at human SSTR4; > 1000 nM on human SSTR5.

Values taken from US7019109B2, “SSTR1-selective analogs” (The Salk Institute for Bilogical Studies, priority 2001, dated 2006).
